SMILES strings stand for the structures.

Test [1] concerns the target T1, Serotonin 3 receptor (5HT3) (Mus musculus) (UniProt Q9JHJ5+P23979). Put plainly: (§1) The binding affinity was measured for 5-hydroxytryptamine 3 receptor on NG 108-15 cell line of mouse neuroblastoma-glioma cells in presence of [3H]5 radioligand (in vitro). Type of test: cell-based. The note with it: concentration not given here.
Test [2] addresses T2, Serotonin 3 receptor (5HT3) (Mus musculus, UniProt Q9JHJ5+P23979).
T2 sequence (Q9JHJ5 whole entry): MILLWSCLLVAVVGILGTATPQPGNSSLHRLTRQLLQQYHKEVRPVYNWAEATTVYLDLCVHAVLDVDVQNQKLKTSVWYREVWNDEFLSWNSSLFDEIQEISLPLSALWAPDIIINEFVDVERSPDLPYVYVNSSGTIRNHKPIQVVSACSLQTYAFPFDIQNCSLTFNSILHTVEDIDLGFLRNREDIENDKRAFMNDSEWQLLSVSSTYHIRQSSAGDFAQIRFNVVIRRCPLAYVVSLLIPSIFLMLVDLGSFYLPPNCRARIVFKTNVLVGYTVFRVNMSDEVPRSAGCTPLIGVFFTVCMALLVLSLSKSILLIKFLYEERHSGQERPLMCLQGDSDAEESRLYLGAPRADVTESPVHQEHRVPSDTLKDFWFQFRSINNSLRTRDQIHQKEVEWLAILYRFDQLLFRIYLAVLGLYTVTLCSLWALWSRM
T2 sequence (P23979 whole entry): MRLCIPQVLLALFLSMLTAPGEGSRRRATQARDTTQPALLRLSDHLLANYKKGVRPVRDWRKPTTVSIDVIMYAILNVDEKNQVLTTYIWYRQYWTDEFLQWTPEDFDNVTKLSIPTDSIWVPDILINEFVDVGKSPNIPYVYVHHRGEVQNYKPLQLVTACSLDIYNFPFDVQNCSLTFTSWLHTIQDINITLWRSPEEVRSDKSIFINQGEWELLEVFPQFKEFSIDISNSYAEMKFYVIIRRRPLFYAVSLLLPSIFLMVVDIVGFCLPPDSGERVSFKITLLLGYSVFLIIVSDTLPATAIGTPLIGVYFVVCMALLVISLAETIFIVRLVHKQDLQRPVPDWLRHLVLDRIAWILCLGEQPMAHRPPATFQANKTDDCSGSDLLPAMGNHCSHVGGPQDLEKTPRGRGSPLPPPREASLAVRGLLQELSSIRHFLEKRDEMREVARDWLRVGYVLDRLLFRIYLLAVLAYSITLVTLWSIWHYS
Described as §1. Type of test: cell-based.

In test [3] the target is T1, Serotonin 3 receptor (5HT3) (Mus musculus). In words: Percent inhibition of [3H]5 binding to 5-hydroxytryptamine 3 receptor was evaluated by injection of compound (75 microCi/kg, […]) into the tail vein of mice (in vivo). Format: organism-based.

The term inhibition denotes the drop in the measured response relative to a control, in per cent. On to `Cc1[nH]cnc1Cc1nc(-c2ccccc2F)cs1`, for which, in test [1], the inhibition was 66%.
What is called Ki is the equilibrium dissociation constant of an inhibitor or competing ligand from its target. Consider `Cc1[nH]c2ccc(O)cc2c1CCN`, for which the Ki in test [2] is reported as 1430 nM.
Molecule `Cc1[nH]cnc1Cc1nc(-c2cccc3cccnc23)cs1` showed an inhibition in test [3] of 54%.
In the case of `Cc1[nH]cnc1Cc1nc(-c2ccccc2)cs1`, the inhibition in test [1] worked out at 53%.
For the molecule `COc1ccccc1-c1csc(Cc2[nH]cnc2C)n1`, the inhibition in test [1] was found to be 50%.
`Cc1nccn1CC1CCc2c(c3ccccc3n2C)C1=O` (stereo not drawn) [ONDANSETRON]: the Ki in test [2] was 12 nM.
Take `c1ccc2nc(N3CCNCC3)ccc2c1` [QUIPAZINE]: the Ki in test [2] turned out to be 8.67 nM.
Regarding `CN1[C@@H]2CC[C@H]1C[C@@H](OC(=O)c1c[nH]c3ccccc13)C2` [TROPISETRON], the Ki in test [2] was determined as 3.8 nM.

The values above are taken from ChEMBL document CHEMBL1125008 (J Med Chem, 1990).
